# Experimental data taken from patent publication EP0533056A2, “Substituted aminopropanes, process for their preparation and their use as antimycotic agents” (HOECHST AKTIENGESELLSCHAFT, priority 1991, dated 1993).
# System: Phospholipase von Candida albicans
# Experiment: Inhibition of released exoenzymes (phospholipase) of Candida albicans blastoconidia, egg-yolk agar plate, turbidity halo
# Assay type: cell-based
# Settings: Konzentration 1 μm/ml; Candida albicans Stamm 200/175, in vitro
# Method: Zur Feststellung der Enzymhemmung wurde eine Suspension von Candida albicans Blastokonidien (Stamm 200/175), wobei die Keimdichte photometrisch auf eine Extinktion von 0,5 (500 nm) eingestellt war, mit Präparatelösung bzw. zur Kontrolle mit Lösungsmittellösung vermischt und zwar • a) 100 µl Präparatelösung (Suspension) • + 900 µl Keimsuspension • b) 100 µl Lösungsmittel • + 900 µl Keimsuspension Jeweils 5 µl der 30 min bei 21 ° C inkubierten Blastokonidiensuspension wurden auf eine Agarplatte (Sabourand Agar mit Zusatz von 8 % Eigelb, 1 m NaCI, 5 mM CaC12) aufgetropft.
# Die so beimpfte Platte wurde 3 Tage bei 37 ° C bebrütet.
# Die Auswertung erfolgte derart, daß • 1. der Durchmesser (mm) der Candida albicans-Kolonie (behandelt und unbehandelt) sowie • 2. der Gasamtdurchmesser von Kolonie und Trübungshof, welcher durch Exoenzyme verursacht wurde (behandelt und unbehandelt), bestimmt wurde.
# Aus der Bestimmung des Quotienten von Präparate- und Kontrollgruppe ergab sich ein Wert, der als Maß für die Enzymaktivität anzusehen war.
row,SMILES,% Hemmung der Phospholipase [%]
1,CCCCCCCCCCCCNCC(O)(COc1ccc(Oc2ccccc2)cc1)C(C)(C)C (centres unmarked) [1.34],6.3
2,CC(C)(C)CC(C)(C)c1ccc(OCC(O)(CNCc2ccc(Cl)cc2Cl)C(C)(C)C)cc1 (centres unmarked) [1.48],14.3

# Same assay, conditions: Konzentration 5 μm/ml; Candida albicans Stamm 200/175, in vitro
row,SMILES,% Hemmung der Phospholipase [%]
1,CCCCNCC(O)(COc1ccc(C(C)(C)C)cc1)c1ccc(-c2ccccc2)cc1 (centres unmarked) [1.15],100
2,CCCCCCCCCCCCNCC(O)(COc1ccc(C(C)(C)C)cc1)c1ccc(-c2ccccc2)cc1 (centres unmarked) [1.17],100
3,CCCCCCCOc1ccc(OCC(O)(CNCCCC)C(C)(C)C)cc1 (centres unmarked) [1.18],100
4,"CCCCCCCOc1ccc(OCC(O)(CNCc2ccccc2)C(C)(C)C)cc1 (centres unmarked) [1.19, 3-N-Benzylamino-2-t-butyl-1-(4-heptyloxy-phenyl-oxy)-2-propanol]",100
5,CCCCCCCCCCCCNCC(O)(COc1ccc(OCCCCCCC)cc1)C(C)(C)C (centres unmarked) [1.23],100
6,CCCCCCCOc1ccc(OCC(O)(CNC(C)C)C(C)(C)C)cc1 (centres unmarked) [1.24],100
7,CC1(C)CC(NCC(O)(COc2ccc(Oc3ccccc3)cc2)C(C)(C)C)CC(C)(C)N1 (centres unmarked) [1.31],7.7
8,CCCCCCCCCCCCNCC(O)(COc1ccc(Oc2ccccc2)cc1)C(C)(C)C (centres unmarked) [1.34],33.3
9,CC(C)(C)CC(C)(C)c1ccc(OCC(O)(CNCc2ccc(Cl)cc2Cl)C(C)(C)C)cc1 (centres unmarked) [1.48],100
10,CCCCCCCCCCCCNCC(O)(COc1ccc(OCCCCCCC)cc1)c1ccccc1 (centres unmarked) [1.53],100

# Same assay, conditions: Konzentration 10 μm/ml; Candida albicans Stamm 200/175, in vitro
row,SMILES,% Hemmung der Phospholipase [%]
1,"CC(C)NCC(O)(COc1ccc(Cl)cc1Cl)C(C)(C)C (centres unmarked) [1.7, 2-t-Butyl-1-(2,4-dichlorphenoxy)-3-isopropyl-amino-2-propanol]",20
2,CCCCNCC(O)(COc1ccc(C(C)(C)C)cc1)c1ccc(-c2ccccc2)cc1 (centres unmarked) [1.15],100
3,CCCCCCCCCCCCNCC(O)(COc1ccc(C(C)(C)C)cc1)c1ccc(-c2ccccc2)cc1 (centres unmarked) [1.17],100
4,CCCCCCCOc1ccc(OCC(O)(CNCCCC)C(C)(C)C)cc1 (centres unmarked) [1.18],100
5,"CCCCCCCOc1ccc(OCC(O)(CNCc2ccccc2)C(C)(C)C)cc1 (centres unmarked) [1.19, 3-N-Benzylamino-2-t-butyl-1-(4-heptyloxy-phenyl-oxy)-2-propanol]",100
6,CCCCCCCOc1ccc(OCC(O)(CNCc2ccc(OC)c(OC)c2)C(C)(C)C)cc1 (centres unmarked) [1.21],100
7,CCCCCCCOc1ccc(OCC(O)(CNCCC(c2ccccc2)c2ccccc2)C(C)(C)C)cc1 (centres unmarked) [1.22],10
8,CCCCCCCCCCCCNCC(O)(COc1ccc(OCCCCCCC)cc1)C(C)(C)C (centres unmarked) [1.23],100
9,CCCCCCCOc1ccc(OCC(O)(CNC(C)C)C(C)(C)C)cc1 (centres unmarked) [1.24],100
10,CC1(C)CC(NCC(O)(COc2ccc(Oc3ccccc3)cc2)C(C)(C)C)CC(C)(C)N1 (centres unmarked) [1.31],100
11,CCCCCCCCCCCCNCC(O)(COc1ccc(Oc2ccccc2)cc1)C(C)(C)C (centres unmarked) [1.34],100
12,CC(C)(C)CC(C)(C)c1ccc(OCC(O)(CNCc2ccc(Cl)cc2Cl)C(C)(C)C)cc1 (centres unmarked) [1.48],100
13,CCCCCCCCCCCCNCC(O)(COc1ccc(OCCCCCCC)cc1)c1ccccc1 (centres unmarked) [1.53],100

# Same assay, conditions: Konzentration 50 μm/ml; Candida albicans Stamm 200/175, in vitro
row,SMILES,% Hemmung der Phospholipase [%]
1,CC(C)(C)NCC(O)(COc1ccc(OCc2ccccc2)cc1)C(C)(C)C (centres unmarked) [1.5],100
2,CCCCNCC(O)(COc1ccc(C(C)(C)C)cc1)c1ccc(-c2ccccc2)cc1 (centres unmarked) [1.15],100
3,CCCCCCCCCCCCNCC(O)(COc1ccc(C(C)(C)C)cc1)c1ccc(-c2ccccc2)cc1 (centres unmarked) [1.17],100
4,CCCCCCCOc1ccc(OCC(O)(CNCCCC)C(C)(C)C)cc1 (centres unmarked) [1.18],100
5,"CCCCCCCOc1ccc(OCC(O)(CNCc2ccccc2)C(C)(C)C)cc1 (centres unmarked) [1.19, 3-N-Benzylamino-2-t-butyl-1-(4-heptyloxy-phenyl-oxy)-2-propanol]",100
6,CCCCCCCOc1ccc(OCC(O)(CNCc2ccc(OC)c(OC)c2)C(C)(C)C)cc1 (centres unmarked) [1.21],100
7,CCCCCCCOc1ccc(OCC(O)(CNCCC(c2ccccc2)c2ccccc2)C(C)(C)C)cc1 (centres unmarked) [1.22],100
8,CCCCCCCCCCCCNCC(O)(COc1ccc(OCCCCCCC)cc1)C(C)(C)C (centres unmarked) [1.23],100
9,CCCCCCCOc1ccc(OCC(O)(CNC(C)C)C(C)(C)C)cc1 (centres unmarked) [1.24],100
10,CC1(C)CC(NCC(O)(COc2ccc(Oc3ccccc3)cc2)C(C)(C)C)CC(C)(C)N1 (centres unmarked) [1.31],100
11,CCCCCCCCCCCCNCC(O)(COc1ccc(Oc2ccccc2)cc1)C(C)(C)C (centres unmarked) [1.34],100
12,CC(C)(C)CC(C)(C)c1ccc(OCC(O)(CNCc2ccc(Cl)cc2Cl)C(C)(C)C)cc1 (centres unmarked) [1.48],100
13,CCCCCCCCCCCCNCC(O)(COc1ccc(OCCCCCCC)cc1)c1ccccc1 (centres unmarked) [1.53],100

# Same assay, conditions: Konzentration 100 μm/ml; Candida albicans Stamm 200/175, in vitro
row,SMILES,% Hemmung der Phospholipase [%]
1,CC(C)(C)NCC(O)(COc1ccc(OCc2ccccc2)cc1)C(C)(C)C (centres unmarked) [1.5],100
2,"CC(C)NCC(O)(COc1ccc(Cl)cc1Cl)C(C)(C)C (centres unmarked) [1.7, 2-t-Butyl-1-(2,4-dichlorphenoxy)-3-isopropyl-amino-2-propanol]",100
3,CCCCNCC(O)(COc1ccc(C(C)(C)C)cc1)C(C)(C)C (centres unmarked) [1.11],100
4,CCCCNCC(O)(COc1ccc(C(C)(C)C)cc1)c1ccc(-c2ccccc2)cc1 (centres unmarked) [1.15],100
5,CCCCCCCCCCCCNCC(O)(COc1ccc(C(C)(C)C)cc1)c1ccc(-c2ccccc2)cc1 (centres unmarked) [1.17],100
6,CCCCCCCOc1ccc(OCC(O)(CNCCCC)C(C)(C)C)cc1 (centres unmarked) [1.18],100
7,"CCCCCCCOc1ccc(OCC(O)(CNCc2ccccc2)C(C)(C)C)cc1 (centres unmarked) [1.19, 3-N-Benzylamino-2-t-butyl-1-(4-heptyloxy-phenyl-oxy)-2-propanol]",100
8,CCCCCCCOc1ccc(OCC(O)(CNCc2ccc(OC)c(OC)c2)C(C)(C)C)cc1 (centres unmarked) [1.21],100
9,CCCCCCCOc1ccc(OCC(O)(CNCCC(c2ccccc2)c2ccccc2)C(C)(C)C)cc1 (centres unmarked) [1.22],100
10,CCCCCCCCCCCCNCC(O)(COc1ccc(OCCCCCCC)cc1)C(C)(C)C (centres unmarked) [1.23],100
11,CCCCCCCOc1ccc(OCC(O)(CNC(C)C)C(C)(C)C)cc1 (centres unmarked) [1.24],100
12,CC1(C)CC(NCC(O)(COc2ccc(Oc3ccccc3)cc2)C(C)(C)C)CC(C)(C)N1 (centres unmarked) [1.31],100
13,CCCCCCCCCCCCNCC(O)(COc1ccc(Oc2ccccc2)cc1)C(C)(C)C (centres unmarked) [1.34],100
14,CC(C)(C)CC(C)(C)c1ccc(OCC(O)(CNCc2ccc(Cl)cc2Cl)C(C)(C)C)cc1 (centres unmarked) [1.48],100
15,CCCCCCCCCCCCNCC(O)(COc1ccc(OCCCCCCC)cc1)c1ccccc1 (centres unmarked) [1.53],100
16,"CC(C)NCC(O)COc1cccc2ccccc12 (centres unmarked) [Propranolol, reference compound]",30

# System: Phospholipase aus Leberzellen
# Experiment: not given
# Settings: in-vitro-Test, literature (Pappu A.S. et al., Biochem. Pharmacol. 34, 521-24, 1985); cited from earlier work
row,SMILES,Hemmwirkung gegenüber Phospholipase aus Leberzellen
1,"CC(C)NCC(O)COc1cccc2ccccc12 (centres unmarked) [Propranolol, reference compound]",wirksamste Substanz

# System: Trichophyton mentagrophytes
# Experiment: Percent killing of Trichophyton mentagrophytes in vitro
# Assay type: cell-based
# Settings: 40 µg/ml, nach 14 h in aqua dest., read-out: %-Abtötung von Trichophyton mentagrophytes
# Text: Die pilzabtötende, antimykotische Wirksamkeit der Verbindungen wurde an einigen Beispielen (s. Tabelle 3) anhand der prozentualen Abtötung von Trichophyton mentagrophytes in vitro verifiziert (Standardpräparat Rilopirox als Vergleichssubstanz).
row,SMILES,killing at 40 µg/mL [%]
1,CCCCCCCCCCCCNCC(O)(COc1ccc(C(C)(C)C)cc1)c1ccc(-c2ccccc2)cc1 (centres unmarked) [1.17],97.8
2,"Cc1cc(COc2ccc(Oc3ccc(Cl)cc3)cc2)n(O)c(=O)c1 [Rilopirox, reference compound]",100

# Same assay, conditions: 80 µg/ml, nach 14 h in aqua dest., read-out: %-Abtötung von Trichophyton mentagrophytes
row,SMILES,killing at 80 µg/mL [%]
1,CCCCCCCCCCCCNCC(O)(COc1ccc(C(C)(C)C)cc1)c1ccc(-c2ccccc2)cc1 (centres unmarked) [1.17],100
2,"Cc1cc(COc2ccc(Oc3ccc(Cl)cc3)cc2)n(O)c(=O)c1 [Rilopirox, reference compound]",100
